Earlier results on two compounds are cited in patent publication US9861647B2 (Prelief Inc., priority 2007, dated 2018).

Read-outs that look alike come from different tables or passages of the source.

For this data set, the system named is ragweed sensitized Beagle dogs. To be noted: Rudolph et al., 2003, cited from earlier work.

Take `CN(C)CCC(c1ccc(Cl)cc1)c1ccccn1` (centres unmarked) [chlorpheniramine]: the RW-induced nasal congestion result (chlorpheniramine 10 mg/kg) was “can prevent the development of RW-induced nasal congestion”.
For `CN[C@@H](C)[C@@H](O)c1ccccc1` [pseudoephedrine], the RW-induced nasal congestion result (pseudoephedrine 3 mg/kg) is “can prevent the development of RW-induced nasal congestion”.
